The results in this text go back to patent EP0609437B1, “NOVEL SPHINGOGLYCOLIPID AND USE THEREOF” (KIRIN BEER KABUSHIKI KAISHA, priority 1991, dated 1993).

Read-outs that look alike come from different tables or passages of the source.

The subject of one assay is B16 mouse melanoma cells. Nature of the assay: Anti-tumor activity against B16 mouse melanoma inoculated subcutaneously. In kind it is in vivo. The note with it: maximum tumor growth inhibition rate during the test period of 20 days, female BDF1 mice, 0.1 mg/kg intravenously on days 1, 5 and 9 after s.c. inoculation; for inhibition in vivo at 0.1 mg/kg: Mus musculus, iv, 480 h, read-out: TGIR (%). As to the method:
Anti-tumor activity against B16 mouse melanoma inoculated subcutaneously.
Experiment was carried out with the groups of 6 female BDF1 mice (6 weeks old) purchased from Japan SLC Inc., B16 mouse melanoma cells (1 × 10^6 cells/mouse) were inoculated subcutaneously in the rear region of mice, and the sample prepared in a concentration of 0.1 mg/kg was administered intravenously at a dose of 0.2 ml/20g/mouse after 1, 5 and 9 days from inoculation (the day of inoculation being set as 0 day). The volume of the tumor at the hypodermis of the rear region [(longer diameter × shorter diameter × height)/2] was measured on 8, 12, 16 and 20 days after inoculation, and the tumor growth inhibition rate (TGIR) of each sample was determined. TGIR was calculated from the following equation: TGIR (%) = (1 - T/C) × 100 [formula] wherein C represents a tumor volume of the control group and T represents a tumor volume of the group to which the sample was administered.
In this connection, respective test runs were divided by broken lines.

For assay [1], the system named is spleen cells of C57BL/6 mouse and pancreatic cells of BALB/c mouse. Nature of the assay: Lymphocyte mixed culture reaction (mouse MLR), uptake of 3H-TdR. Type of assay: cell-based. The note with it: for activity at 1 µg/mL / activity at 0.1 µg/mL / activity at 0.01 µg/mL: Mus musculus, Lymphocyte, read-out: Uptake of ^3H-TdR (% of control); for activity at 1 µg/mL: sample concentration 10^0 µg/ml. As to the method:
Experiment was carried out with the spleen cells of C57BL/6 mouse which had been treated with mitomycin C (50 µg/ml, 30 min) as the stimulator and with the […] cells of BALB/c mouse as the responder. These […] cells were suspended to a concentration of 2 × 10^6 cells/ml with a culture medium of 10% FCS RPMI 1640, respectively. These cells (50 µl/well) and a sample (10 µl/well) were plated in a 96 well round-bottomed plate and cultured for 42 hours* under the condition of 37°C and 5% CO2. ^3H-thymidine (^3H-TdR) was added in a dose of 0.5 µCi/well. After 8 hours, the cells were harvested and subjected to the measurement of the uptake of ^3H-TdR by a liquid scintillation counter.
*The samples of the compounds 32, 33 and 34 were cultured for 4 days.

[2] abbreviates: 50 h, cultured for 42 hours, then 8 hours with 3H-TdR.
Where [3] appears, read: 50 h, sample concentration 10^-1 µg/ml, cultured for 42 hours, then 8 hours with 3H-TdR.
Setting [4] is: 50 h, sample concentration 10^-2 µg/ml, cultured for 42 hours, then 8 hours with 3H-TdR.

Consider `CCCCCCCCCCCCCCCCCCCCCCCC[C@@H](O)C(=O)N[C@@H](CO[C@H]1O[C@H](CO)[C@H](O)[C@H](O)[C@H]1O)[C@H](O)[C@H](O)CCCCCCCCCCCCCCCC` [Compound 27, (2S,3S,4R)-1-(α-D-galactopyranosyloxy)-2-[(R)-2-hydroxyhexacosanoylamino]-3,4-icosanediol], for which the inhibition in vivo at 0.1 mg/kg in the assay on B16 mouse melanoma cells was determined as 92.8%. Further, the activity at 1 µg/mL in assay [1] (setting [2]) stood at 257%. For the same molecule, the activity at 0.1 µg/mL in assay [1] (setting [3]) was determined as 181%. The activity at 0.01 µg/mL in assay [1] (setting [4]) was 162%.

Regarding `CCCCCCCCCCCCCCCCCCCCCCC[C@@H](O)C(=O)N[C@@H](CO[C@H]1O[C@H](CO)[C@H](O)[C@H](O)[C@H]1O)[C@H](O)[C@H](O)CCCCCCCCCCCC(C)CC` (stereo partly drawn) [Compound 34, (2S,3S,4R)-1-(α-D-galactopyranosyloxy)-2-[(R)-2-hydroxypentacosanoylamino]-16-methyl-3,4-octadecanediol], in the assay with B16 mouse melanoma cells, the inhibition in vivo at 0.1 mg/kg is 88.9%. Also, the activity at 0.1 µg/mL in assay [1] (96 h, sample concentration 10^-1 µg/ml, cultured for 4 days) came out at 360%. Further, in assay [1] (96 h, sample concentration 10^-2 µg/ml, cultured for 4 days), the activity at 0.01 µg/mL is 406%.

On to “(2S,3S,4R)-1-(α-D-galactopyranosyloxy)-2-[(R)-2-hydroxytetracosanoylamino]-3,4-hexadecanediol [Compound 32]”, for which, in the assay on B16 mouse melanoma cells, the “TGIR (%)” value amounted to 73.2%. Further, the “Uptake of ^3H-TdR (% of control)” value is 406 % of control in assay [1] (sample concentration 10^-1 µg/ml, cultured for 4 days) and 426 % of control in assay [1] (sample concentration 10^-2 µg/ml, cultured for 4 days).

As to `CCCCCCCCCCCCC/C=C/[C@@H](O)[C@H](CO[C@H]1O[C@H](CO)[C@H](O)[C@H](O)[C@H]1O)NC(=O)CCCCCCCCCCCCCCCCC` [Compound 15, (2S,3R,4E)-1-(α-D-galactopyranosyloxy)-2-octadecanoylamino-4-octadecen-3-ol], the inhibition in vivo at 0.1 mg/kg in the assay on B16 mouse melanoma cells is 61.9%. In addition, the activity at 1 µg/mL in assay [1] (setting [2]) turned out to be 360%. In assay [1] (setting [3]), the activity at 0.1 µg/mL turned out to be 165%. Moreover, the activity at 0.01 µg/mL in assay [1] (setting [4]) is 144%.

On to `CCCCCCCCCCCCCCCCCCCCCC[C@H](O)C(=O)N[C@@H](CO[C@H]1O[C@H](CO)[C@H](O)[C@H](O)[C@H]1O)[C@H](O)[C@H](O)CCCCCCCCCCCC(C)C` [Compound 30, (2S,3S,4R)-1-(α-D-galactopyranosyloxy)-2-[(S)-2-hydroxytetracosanoylamino]-16-methyl-3,4-heptadecanediol], for which the inhibition in vivo at 0.1 mg/kg in the assay on B16 mouse melanoma cells came out at 57.7%. Besides, the activity at 1 µg/mL in assay [1] (setting [2]) stood at 385%. For the same molecule, the activity at 0.1 µg/mL in assay [1] (setting [3]) was found to be 156%. Also, the activity at 0.01 µg/mL in assay [1] (setting [4]) worked out at 134%.

On to `CCCCCCCCCCCCCCCCCCCCCCCC[C@@H](O)C(=O)N[C@@H](CO[C@H]1O[C@H](CO)[C@H](O)[C@H](O)[C@H]1O)[C@H](O)[C@H](O)CCCCCCCCCCCCCC` [Compound 25, (2S,3S,4R)-1-(α-D-galactopyranosyloxy)-2-[(R)-2-hydroxyhexacosanoylamino]-3,4-octadecanediol], for which the inhibition in vivo at 0.1 mg/kg in the assay on B16 mouse melanoma cells was determined as 92.8%. Besides, the activity at 1 µg/mL in assay [1] (setting [2]) was determined as 230%. Further, the activity at 0.1 µg/mL in assay [1] (setting [3]) came to 179%. Further, the activity at 0.01 µg/mL in assay [1] (setting [4]) came to 161%.

Consider `CCCCCCCCCCCCCC(=O)N[C@H](CO[C@H]1O[C@H](CO)[C@H](O)[C@H](O)[C@H]1O)[C@@H](O)CCCCCCCCCCCCC` [Compound 11, (2R,3S)-1-(α-D-galactopyranosyloxy)-2-tetradecanoylamino-3-hexadecanol], for which, in the assay with B16 mouse melanoma cells, the inhibition in vivo at 0.1 mg/kg came to 55.9%. In assay [1] (setting [2]), the activity at 1 µg/mL was 128%. In assay [1] (setting [3]), the activity at 0.1 µg/mL worked out at 105%. Further, in assay [1] (setting [4]), the activity at 0.01 µg/mL is 95%.

As for `CCCCCCCCCCCCCCCCCCCCCC[C@H](O)C(=O)N[C@@H](CO[C@H]1O[C@H](CO)[C@H](O)[C@H](O)[C@H]1O)[C@H](O)[C@H](O)CCCCCCCCCCCCC` [Compound 28, (2S,3S,4R)-1-(α-D-galactopyranosyloxy)-2-[(S)-2-hydroxytetracosanoylamino]-3,4-heptadecanediol], the inhibition in vivo at 0.1 mg/kg with B16 mouse melanoma cells turned out to be 76.2%. Besides, the activity at 1 µg/mL in assay [1] (setting [2]) worked out at 357%. For the same molecule, the activity at 0.1 µg/mL in assay [1] (setting [3]) is 172%. Moreover, in assay [1] (setting [4]), the activity at 0.01 µg/mL was 141%.

For the molecule `CCCCCCCCCCCCCCCCCCCCCC[C@@H](O)C(=O)N[C@@H](CO[C@H]1O[C@H](CO)[C@H](O)[C@H](O)[C@H]1O)[C@H](O)[C@H](O)CCCCCCCCCCC` [Compound 23, (2S,3S,4R)-1-(α-D-galactopyranosyloxy)-2-[(R)-2-hydroxytetracosanoylamino]-3,4-pentadecanediol], the inhibition in vivo at 0.1 mg/kg with B16 mouse melanoma cells turned out to be 94.1%. The activity at 1 µg/mL in assay [1] (setting [2]) amounted to 423%. Besides, in assay [1] (setting [3]), the activity at 0.1 µg/mL is 167%. Moreover, in assay [1] (setting [4]), the activity at 0.01 µg/mL amounted to 143%.

In the case of `CCCCCCCCCCCCCCCCCCCCCC(=O)N[C@@H](CO[C@H]1O[C@H](CO)[C@H](O)[C@H](O)[C@H]1O)[C@H](O)CCCCCCCCCCCCCCC` [Compound 2, (2S,3R)-2-docosanoylamino-1-(α-D-galactopyranosyloxy)-3-octadecanol], the inhibition in vivo at 0.1 mg/kg with B16 mouse melanoma cells stood at 53.1%. Further, the activity at 1 µg/mL in assay [1] (setting [2]) came to 329%. Also, the activity at 0.1 µg/mL in assay [1] (setting [3]) was 115%. Also, in assay [1] (setting [4]), the activity at 0.01 µg/mL came to 103%.

Regarding `CCCCCCCCCCCCCC(=O)N[C@H](CO[C@H]1O[C@H](CO)[C@H](O)[C@H](O)[C@H]1O)[C@H](O)CCCCCCCCCCCCC` [Compound 13, (2R,3R)-1-(α-D-galactopyranosyloxy)-2-tetradecanoylamino-3-hexadecanol], in the assay on B16 mouse melanoma cells, the inhibition in vivo at 0.1 mg/kg stood at 28.2%. Besides, in assay [1] (setting [2]), the activity at 1 µg/mL is 139%. The activity at 0.1 µg/mL in assay [1] (setting [3]) is 106%. The activity at 0.01 µg/mL in assay [1] (setting [4]) was 107%.

`CCCCCCCCCCCCCCCCCCCCCCCC(=O)N[C@@H](CO[C@H]1O[C@H](CO)[C@H](O)[C@H](O)[C@H]1O)[C@H](O)[C@H](O)CCCCCCCCCCCCC` [Compound 17, (2S,3S,4R)-1-(α-D-galactopyranosyloxy)-2-tetracosanoylamino-3,4-heptadecanediol]: the inhibition in vivo at 0.1 mg/kg with B16 mouse melanoma cells was found to be 58%. Moreover, the activity at 1 µg/mL in assay [1] (setting [2]) was determined as 410%. In assay [1] (setting [3]), the activity at 0.1 µg/mL is 190%. Moreover, the activity at 0.01 µg/mL in assay [1] (setting [4]) turned out to be 143%.

Regarding `CCCCCCCCCCCCCCCCCCCCCCCC[C@@H](O)C(=O)N[C@@H](CO[C@H]1O[C@H](CO)[C@H](O)[C@H](O)[C@H]1O)[C@H](O)[C@H](O)CCCCCCCCCCCCCCC` [Compound 26, (2S,3S,4R)-1-(α-D-galactopyranosyloxy)-2-[(R)-2-hydroxyhexacosanoylamino]-3,4-nonadecanediol], in the assay with B16 mouse melanoma cells, the inhibition in vivo at 0.1 mg/kg came out at 72.3%. Further, in assay [1] (setting [2]), the activity at 1 µg/mL turned out to be 253%. Moreover, in assay [1] (setting [3]), the activity at 0.1 µg/mL was determined as 199%. Moreover, the activity at 0.01 µg/mL in assay [1] (setting [4]) worked out at 193%.

With `CCCCCCCCCCCCCC(=O)N[C@@H](CO[C@H]1O[C@H](CO)[C@H](O)[C@H](O)[C@H]1O)[C@H](O)CCCCCCCCCCCCC` [Compound 10, (2S,3R)-1-(α-D-galactopyranosyloxy)-2-tetradecanoylamino-3-hexadecanol], in the assay with B16 mouse melanoma cells, the inhibition in vivo at 0.1 mg/kg was 76.5%. Moreover, the activity at 1 µg/mL in assay [1] (setting [2]) turned out to be 610%. Also, the activity at 0.1 µg/mL in assay [1] (setting [3]) was determined as 381%. Also, the activity at 0.01 µg/mL in assay [1] (setting [4]) came out at 157%.

Turning to `CCCCCCCCCCCCCCCCCCCCCCCC(=O)N[C@@H](CO[C@H]1O[C@H](CO)[C@H](O)[C@H](O)[C@H]1O)[C@H](O)CCCCCCCCCCCCCCC` [Compound 1, (2S,3R)-1-(α-D-galactopyranosyloxy)-2-tetracosanoylamino-3-octadecanol], the inhibition in vivo at 0.1 mg/kg in the assay with B16 mouse melanoma cells worked out at 91.4%. For the same molecule, the activity at 1 µg/mL in assay [1] (setting [2]) came to 359%. Moreover, the activity at 0.1 µg/mL in assay [1] (setting [3]) came out at 151%. In assay [1] (setting [4]), the activity at 0.01 µg/mL turned out to be 136%.
